Measurements as given in publication PMC10900215 (JACS Au, 2024).

What was measured:
METTL3 = molecular target: T1, METTL3 (Homo sapiens, UniProt Q86U44); test: Cellular degradation assay (Western blot), METTL3 in MOLM-13; format: cell-based; details: MOLM-13, 24 h, 2 μM compound
T1 construct: METTL3–14 degradation up to 70% of the endogenous level; endogenous in cells; host or cells: MOLM-13, PC3, DU145
Description: (§1) MOLM-13, NOMO-1, THP-1, Kasumi-1, PC3, and DU145 cell lines were obtained from DSMZ-German Collection of Microorganisms and Cell Cultures GmbH. Cells were cultured in RPMI 1640 medium (11875093, Thermo Fisher Scientific) containing 10% FBS (16140071, Thermo Fisher Scientific) and 1% penicillin-streptomycin (15140122, Thermo Fisher Scientific) in 5% CO2 at 37 °C in a humidified incubator, with maintained cell densities at 0.5–1 × 10^6 cells/mL. All cell lines were tested negative for mycoplasma contamination (PCR-based assay by Microsynth, Switzerland).
(§2) METTL3 (and METTL14) protein degradation was monitored by Western blot. Cells were treated with the indicated concentration of PROTACs or DMSO control (0.1% (v/v)) for 24h, 37 °C with 5% CO2. Samples were then collected and lysed with RIPA buffer with added protease inhibitors (11697498001, Roche). After SDS-PAGE, proteins were transferred to a nitrocellulose membrane, blocked (with 5% milk, 0.5% BSA in TBST buffer), and incubated overnight with primary antibodies. The following antibodies were used: GAPDH (no. 2118, Cell Signaling, 1:4000), β-actin (ab8226, Abcam, 1:2000), METTL3 (ab195352, Abcam, 1:1000), and METTL14 (ab220031, Abcam, 1:1000). Membranes were scanned using an LI-COR Odyssey DLx imager after incubation with appropriate secondary antibodies (antimouse IgG IRDye 680RD (926–68072, LI-COR, 1:10000) and goat anti-Rabbit IgG IRDye 800CW (926–32211, LI-COR, 1:10000)). Densitometry was performed in Image Studio Lite software and analyzed in GraphPad Prism 9.

METTL3-14 = METTL3-14 (Homo sapiens, UniProt Q86U44); test: biochemical; design: with the full-length complex, the recombinant complex construct pFastBacDual-StrepII-GFP-TEV-METTL3-His-TEV-METTL14 was expressed; StrepII (N); GFP (N); TEV site (N); made in house; host or cells: baculovirus/Sf9 insect cells; details: inhibition of catalytic activity of METTL3-14, binary FRET assay
Source text: For determining the half maximal inhibitory concentration (IC50) with the full-length complex, the recombinant complex construct pFastBacDual-StrepII-GFP-TEV-METTL3-His-TEV-METTL14 was expressed using the baculovirus/Sf9 insect cell expression system and purified as described previously.[21]
The inhibitory potencies of the PROTACs for METTL3 were quantified by a homogeneous time-resolved fluorescence (HTRF)-based enzyme assay as previously described.[40]

[1] = molecular target: T2, ternary complex CRBN/PROTAC/METTL3–14 (Homo sapiens, UniProt Q86U44+Q96SW2); test: FRET-based ternary complex formation assay (TCFA); format: binding; details: for TCFA amplitude (mean ± SEM): Hook curve amplitude, fraction of the maximum of compound 16; for ECmax (nM) ± SD: PROTAC concentration at the maximum of the signal in the TCFA; for ECmax: TCFA, peak of the Hook curve
T2 construct: methyltransferase domains (MTD) of METTL3 (residues 354–580); His6 (N, cleaved yes); made in house; host or cells: METTL3-MTD/METTL14-MTD: baculovirus/Sf9; CRBN-TBD: E. coli Rosetta (DE3), co-expressed with BirA
Description: For protein expression, suspension cultures of Sf9 cells in […] medium (Thermo Fisher) were infected at a density of 2 × 10^6 mL^–1. […] The complex was further purified by size exclusion chromatography using a Superdex 200 Increase 10/300 GL column (Cytiva) in 20 mM Tris-Cl, pH 8.0, and 200 mM KCl. The complex was aliquoted and flash-frozen in liquid nitrogen and stored at −80 °C until further use.
Ternary complex formation between the PROTACs, METTL3, and CRBN was quantified by a homogeneous time-resolved fluorescence (HTRF)-based enzyme assay. […] Curves of titrations with the PROTACs were plotted in GraphPad Prism 9.5.1 and fitted with a Gaussian function, if appropriate. […] CRBN^TBD-Avi(biotin) was used at a final concentration of 10 nM. […] Anti-GST Eu^3+-labeled antibody (Cisbio, 61GSTKLB) was used at a final concentration of 0.8 nM. The final reaction volume was 20 μL in 50 mM HEPES (pH 7.5), 150 mM NaCl, 0.1% BSA, 100 mM KF. […] The ratio of the emissions [drawing 1] was considered for further analysis. […] The concentrations resulting in the maximum signal (ECmax) and the amplitudes of the Hook curves were determined from the parameters of the Gaussian fit (if appropriate) or as the coordinates of the data-point with the highest TR-FRET signal.
For the ternary complex formation assay (TCFA), one of the protein partners must have a GST-tag and the other a biotin-tag.

METTL14 = test: Cellular degradation assay (Western blot), METTL14 in MOLM-13; format: cell-based, human; details: MOLM-13, 24 h, 2 μM compound
Description: as §1, §2

[2] = Cell viability assay (CellTiter-Glo) on MOLM-13; format: cell-based; details: human, MOLM-13 cells, 10 µM, average of two biological replicates
Description: as §1
Cell viability was determined using a CellTiter-Glo luminescent cell viability assay (Promega) based on the detection of ATP according to the manufacturer’s instructions. 100 μL of the reagent was added to each well and incubated for 10 min at room temperature. […] Background luminescence value was obtained from wells containing the CellTiter-Glo reagent and medium without cells. The resulting data was analyzed in GraphPad Prism 9.

T2 sequence (Q86U44 354-580): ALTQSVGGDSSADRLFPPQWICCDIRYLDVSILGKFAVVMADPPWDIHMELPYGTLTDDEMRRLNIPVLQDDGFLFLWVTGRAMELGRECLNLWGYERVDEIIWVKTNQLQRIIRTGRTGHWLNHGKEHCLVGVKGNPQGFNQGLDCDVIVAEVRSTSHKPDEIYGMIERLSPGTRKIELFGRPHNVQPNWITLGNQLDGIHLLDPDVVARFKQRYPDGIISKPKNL
T2 sequence (Q9HCE5 107-395 partner limits assumed): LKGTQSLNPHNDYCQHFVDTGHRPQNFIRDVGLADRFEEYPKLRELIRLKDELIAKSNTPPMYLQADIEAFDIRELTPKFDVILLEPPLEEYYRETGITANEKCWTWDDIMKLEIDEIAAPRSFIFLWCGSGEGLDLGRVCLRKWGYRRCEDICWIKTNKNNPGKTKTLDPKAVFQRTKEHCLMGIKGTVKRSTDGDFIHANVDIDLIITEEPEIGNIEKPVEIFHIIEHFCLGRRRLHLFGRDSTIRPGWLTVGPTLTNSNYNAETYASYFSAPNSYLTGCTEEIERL
T2 sequence (Q96SW2 318-442): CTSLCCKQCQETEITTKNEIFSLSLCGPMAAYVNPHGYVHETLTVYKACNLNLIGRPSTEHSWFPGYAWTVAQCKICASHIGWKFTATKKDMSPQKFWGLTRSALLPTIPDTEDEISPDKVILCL
T1 sequence (Q86U44 2-580 limits assumed): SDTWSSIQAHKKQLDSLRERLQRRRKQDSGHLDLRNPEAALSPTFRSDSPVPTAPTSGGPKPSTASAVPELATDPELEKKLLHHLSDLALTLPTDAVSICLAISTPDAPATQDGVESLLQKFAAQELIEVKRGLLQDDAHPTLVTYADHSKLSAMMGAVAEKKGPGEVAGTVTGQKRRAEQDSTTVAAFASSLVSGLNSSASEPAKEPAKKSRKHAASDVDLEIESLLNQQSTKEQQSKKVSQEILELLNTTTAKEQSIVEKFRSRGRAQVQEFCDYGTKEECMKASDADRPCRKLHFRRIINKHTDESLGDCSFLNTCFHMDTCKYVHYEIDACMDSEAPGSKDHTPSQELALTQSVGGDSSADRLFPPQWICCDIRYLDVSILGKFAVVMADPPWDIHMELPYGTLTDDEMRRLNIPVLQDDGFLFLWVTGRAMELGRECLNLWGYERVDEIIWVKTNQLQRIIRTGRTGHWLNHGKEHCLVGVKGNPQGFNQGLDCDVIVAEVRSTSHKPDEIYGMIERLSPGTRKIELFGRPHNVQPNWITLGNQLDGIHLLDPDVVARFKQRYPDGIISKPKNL
T1 sequence (Q9HCE5 whole entry partner): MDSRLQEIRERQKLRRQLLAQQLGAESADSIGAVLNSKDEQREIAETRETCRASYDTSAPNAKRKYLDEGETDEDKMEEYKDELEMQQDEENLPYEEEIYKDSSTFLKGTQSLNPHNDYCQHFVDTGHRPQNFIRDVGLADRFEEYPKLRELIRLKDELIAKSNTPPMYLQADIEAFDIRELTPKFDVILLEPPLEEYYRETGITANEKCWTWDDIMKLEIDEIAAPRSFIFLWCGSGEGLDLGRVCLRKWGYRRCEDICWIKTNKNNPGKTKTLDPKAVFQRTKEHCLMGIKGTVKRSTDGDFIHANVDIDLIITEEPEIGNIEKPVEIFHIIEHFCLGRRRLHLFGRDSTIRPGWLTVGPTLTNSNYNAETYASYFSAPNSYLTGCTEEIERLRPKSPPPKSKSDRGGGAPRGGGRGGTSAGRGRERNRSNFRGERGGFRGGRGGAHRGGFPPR
Chain of METTL3-14 (Q86U44 whole entry): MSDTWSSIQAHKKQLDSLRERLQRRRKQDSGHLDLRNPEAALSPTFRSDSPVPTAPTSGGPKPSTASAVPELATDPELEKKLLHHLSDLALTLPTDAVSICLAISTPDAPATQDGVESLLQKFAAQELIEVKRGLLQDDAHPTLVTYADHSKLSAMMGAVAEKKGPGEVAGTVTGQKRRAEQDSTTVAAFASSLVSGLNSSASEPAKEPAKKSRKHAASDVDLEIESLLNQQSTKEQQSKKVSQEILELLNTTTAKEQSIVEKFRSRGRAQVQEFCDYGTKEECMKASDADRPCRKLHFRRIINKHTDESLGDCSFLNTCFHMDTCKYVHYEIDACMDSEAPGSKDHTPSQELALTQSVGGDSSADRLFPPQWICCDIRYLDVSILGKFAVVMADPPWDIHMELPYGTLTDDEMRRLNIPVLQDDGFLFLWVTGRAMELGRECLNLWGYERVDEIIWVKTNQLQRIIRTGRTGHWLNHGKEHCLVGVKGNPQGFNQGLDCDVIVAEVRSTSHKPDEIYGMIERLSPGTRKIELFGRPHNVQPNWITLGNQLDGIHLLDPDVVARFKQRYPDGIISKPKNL
Chain of METTL3-14 (Q9HCE5 whole entry, further chain): as the sequence (Q9HCE5 whole entry partner) above

Row | SMILES | MOLM-13 West. blot at 24h 2 μM comp conc. Degradation (%) of METTL3 (METTL3) | IC50 (METTL3-14) [nM] | TCFA amplitude (mean ± SEM) [1] | ECmax (nM) ± SD [1] | MOLM-13 West. blot at 24h 2 μM comp conc. Degradation (%) of METTL14 (METTL14) | ECmax [1] | viability at 72 h, 10 µM [2] [%]
1 | CC1(C)CCN(Cc2ccc(N3CC(=O)NC4(CCN(c5cc(NCCCNC(=O)CCCCCCCCCCNc6cccc7c6CN(C6CCC(=O)NC6=O)C7=O)ncn5)CC4)C3)cc2)CC1 (stereo not shown) [Compound 6] | / (Degradation <10% or stabilization) | 520 ± 60 | 0.4 | 3600 (n = 1) nM | / (Degradation <10% or stabilization) | – | –
2 | CC1(C)CCN(Cc2ccc(N3CC(=O)NC4(CCN(c5cc(NCCCNC(=O)CCCCCCCCCCCCCCNc6cccc7c6CN(C6CCC(=O)NC6=O)C7=O)ncn5)CC4)C3)cc2)CC1 (stereo not shown) [Compound 7] | / (Degradation <10% or stabilization) | 1220 ± 90 | 0.1 | 5300 (n = 1) nM | / (Degradation <10% or stabilization) | – | –
3 | CC1(C)CCN(Cc2ccc(N3CC(=O)NC4(CCN(c5cc(NCCCNC(=O)CCCCCCCCCCn6cc(CNc7cccc8c7C(=O)N(C7CCC(=O)NC7=O)C8=O)nn6)ncn5)CC4)C3)cc2)CC1 (stereo not shown) [Compound 8] | / (Degradation <10% or stabilization) | 480 ± 100 | 0.6 | 2200 (n = 1) nM | / (Degradation <10% or stabilization) | – | –
4 | CC1(C)CCN(Cc2ccc(N3CC(=O)NC4(CCN(c5cc(NCCCNC(=O)CCCCCCCCn6cc(CNc7cccc8c7C(=O)N(C7CCC(=O)NC7=O)C8=O)nn6)ncn5)CC4)C3)cc2)CC1 (stereo not shown) [Compound 9] | / (Degradation <10% or stabilization) | 1800 ± 290 | 0.4 | 6700 (n = 1) nM | / (Degradation <10% or stabilization) | – | –
5 | CC1(C)CCN(Cc2cc(F)c(N3CC(=O)NC4(CCN(c5cc(NCCCNC(=O)CCCCCCCCNc6cccc7c6CN(C6CCC(=O)NC6=O)C7=O)ncn5)CC4)C3)cc2F)CC1 (stereo not shown) [Compound 10] | 18 ± 6% | 66 ± 10 | 1.0 ± 0.0 | 200 ± 110 nM | 18 ± 16% | below 1 μM | 86.6
6 | CC1(C)CCN(Cc2cc(F)c(N3CC(=O)NC4(CCN(c5cc(NCCCNC(=O)CCCCCCCCCCNc6cccc7c6CN(C6CCC(=O)NC6=O)C7=O)ncn5)CC4)C3)cc2F)CC1 (stereo not shown) [Compound 11] | / (Degradation <10% or stabilization) | 300 ± 40 | 0.3 ± 0.0 | 910 ± 40 nM | 17 ± 22% | below 1 μM | 84.6
